Columns and labels:
Kinetic solubility assay = assay type: physicochemical; conditions: kinetic solubility, 50 mM PB (pH 7.4), shaken 24 hours at RT
In short: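 Test compounds from 10 mM DMSO stock were diluted in 50 mM phosphate buffer, pH 7.4, and shaken for 24 h at RT. After PTFE filtration and centrifugation, filtrate concentration was quantified by UPLC-UV/HPLC-UV against a standard curve.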

PDGFRα = biological target: T1, PDGFRα (Homo sapiens, UniProt P16234); assay: Caliper biochemical assay, PDGFRα; conditions: Table 6
T1 construct: purchased Millipore 14-467 (lot 26321_ACTI)
T1 sequence (P16234 24-1089): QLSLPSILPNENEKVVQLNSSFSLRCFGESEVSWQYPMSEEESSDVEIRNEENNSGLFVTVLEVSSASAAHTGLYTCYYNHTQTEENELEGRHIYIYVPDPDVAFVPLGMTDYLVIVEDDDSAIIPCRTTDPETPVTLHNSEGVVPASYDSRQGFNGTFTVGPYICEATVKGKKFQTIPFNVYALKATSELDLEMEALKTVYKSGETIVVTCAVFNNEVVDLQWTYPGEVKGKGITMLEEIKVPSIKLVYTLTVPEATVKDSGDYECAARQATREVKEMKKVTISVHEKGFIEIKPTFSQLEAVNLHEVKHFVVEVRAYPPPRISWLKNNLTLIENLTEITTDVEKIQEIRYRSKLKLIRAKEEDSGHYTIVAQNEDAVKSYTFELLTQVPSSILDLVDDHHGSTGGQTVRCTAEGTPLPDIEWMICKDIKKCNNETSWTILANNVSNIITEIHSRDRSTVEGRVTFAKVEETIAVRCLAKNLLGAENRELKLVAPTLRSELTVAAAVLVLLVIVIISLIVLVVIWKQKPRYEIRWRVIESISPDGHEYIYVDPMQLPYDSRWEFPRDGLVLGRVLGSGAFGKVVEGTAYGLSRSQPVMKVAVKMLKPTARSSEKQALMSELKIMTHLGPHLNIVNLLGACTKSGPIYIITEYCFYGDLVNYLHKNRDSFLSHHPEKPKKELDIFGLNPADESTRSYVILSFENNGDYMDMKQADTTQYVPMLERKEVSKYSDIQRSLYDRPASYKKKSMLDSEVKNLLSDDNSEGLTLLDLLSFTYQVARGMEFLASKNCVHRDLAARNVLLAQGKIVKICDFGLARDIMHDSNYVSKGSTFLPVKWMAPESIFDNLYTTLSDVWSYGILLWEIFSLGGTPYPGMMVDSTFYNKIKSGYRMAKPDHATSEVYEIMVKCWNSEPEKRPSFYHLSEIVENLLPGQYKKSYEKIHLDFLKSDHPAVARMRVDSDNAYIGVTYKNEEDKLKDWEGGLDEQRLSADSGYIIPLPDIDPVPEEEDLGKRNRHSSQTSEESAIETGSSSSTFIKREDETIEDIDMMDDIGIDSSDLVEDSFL
In short: (§1)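 Kinase, FAM-labelled peptide substrate, ATP and Mn^2+ incubated with compound for 3 h at 25° C, then quenched with EDTA buffer. Substrate and phosphorylated product separated by microfluidic electrophoresis and quantified by fluorescence intensity; no-enzyme wells define 100% inhibition.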

CSF-1R = biological target: T2, CSF-1R (Homo sapiens, UniProt P07333); assay: Caliper biochemical assay, CSF-1R; conditions: Table 6
T2 construct: purchased Invitrogen PV3249 (lot 662393N)
T2 sequence (P07333 20-972): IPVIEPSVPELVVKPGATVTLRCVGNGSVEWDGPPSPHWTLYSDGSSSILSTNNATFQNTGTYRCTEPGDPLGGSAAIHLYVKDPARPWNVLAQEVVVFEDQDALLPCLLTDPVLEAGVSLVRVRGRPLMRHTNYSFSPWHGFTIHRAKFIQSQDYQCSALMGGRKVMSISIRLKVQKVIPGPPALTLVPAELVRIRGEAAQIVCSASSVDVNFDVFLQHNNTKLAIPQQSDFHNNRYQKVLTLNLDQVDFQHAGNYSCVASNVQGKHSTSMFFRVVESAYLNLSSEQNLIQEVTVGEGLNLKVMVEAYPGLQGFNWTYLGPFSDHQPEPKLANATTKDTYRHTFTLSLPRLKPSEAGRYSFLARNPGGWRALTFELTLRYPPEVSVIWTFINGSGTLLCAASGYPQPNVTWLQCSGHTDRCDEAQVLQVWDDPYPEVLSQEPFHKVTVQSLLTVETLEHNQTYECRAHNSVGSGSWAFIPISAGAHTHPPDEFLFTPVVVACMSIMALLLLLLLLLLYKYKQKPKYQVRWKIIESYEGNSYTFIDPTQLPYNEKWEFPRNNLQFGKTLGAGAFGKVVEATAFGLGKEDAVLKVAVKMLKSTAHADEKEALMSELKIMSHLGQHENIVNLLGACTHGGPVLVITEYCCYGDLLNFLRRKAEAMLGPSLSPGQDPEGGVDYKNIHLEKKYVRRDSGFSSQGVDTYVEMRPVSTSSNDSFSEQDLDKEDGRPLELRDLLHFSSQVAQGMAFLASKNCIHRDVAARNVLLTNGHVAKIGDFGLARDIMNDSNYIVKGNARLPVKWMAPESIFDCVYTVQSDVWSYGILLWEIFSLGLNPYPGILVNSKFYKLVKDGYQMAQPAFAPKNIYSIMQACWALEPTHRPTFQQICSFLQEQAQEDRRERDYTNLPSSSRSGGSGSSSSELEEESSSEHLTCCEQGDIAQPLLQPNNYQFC
In short: as §1

wtKIT = biological target: T3, wtKIT (Homo sapiens, UniProt P10721); assay: Caliper biochemical assay, wtKIT; conditions: Table 6, read-out: KIT Biochemical IC50 avg
T3 construct: 1888289AM in the reaction mixtures
T3 sequence (P10721 26-976): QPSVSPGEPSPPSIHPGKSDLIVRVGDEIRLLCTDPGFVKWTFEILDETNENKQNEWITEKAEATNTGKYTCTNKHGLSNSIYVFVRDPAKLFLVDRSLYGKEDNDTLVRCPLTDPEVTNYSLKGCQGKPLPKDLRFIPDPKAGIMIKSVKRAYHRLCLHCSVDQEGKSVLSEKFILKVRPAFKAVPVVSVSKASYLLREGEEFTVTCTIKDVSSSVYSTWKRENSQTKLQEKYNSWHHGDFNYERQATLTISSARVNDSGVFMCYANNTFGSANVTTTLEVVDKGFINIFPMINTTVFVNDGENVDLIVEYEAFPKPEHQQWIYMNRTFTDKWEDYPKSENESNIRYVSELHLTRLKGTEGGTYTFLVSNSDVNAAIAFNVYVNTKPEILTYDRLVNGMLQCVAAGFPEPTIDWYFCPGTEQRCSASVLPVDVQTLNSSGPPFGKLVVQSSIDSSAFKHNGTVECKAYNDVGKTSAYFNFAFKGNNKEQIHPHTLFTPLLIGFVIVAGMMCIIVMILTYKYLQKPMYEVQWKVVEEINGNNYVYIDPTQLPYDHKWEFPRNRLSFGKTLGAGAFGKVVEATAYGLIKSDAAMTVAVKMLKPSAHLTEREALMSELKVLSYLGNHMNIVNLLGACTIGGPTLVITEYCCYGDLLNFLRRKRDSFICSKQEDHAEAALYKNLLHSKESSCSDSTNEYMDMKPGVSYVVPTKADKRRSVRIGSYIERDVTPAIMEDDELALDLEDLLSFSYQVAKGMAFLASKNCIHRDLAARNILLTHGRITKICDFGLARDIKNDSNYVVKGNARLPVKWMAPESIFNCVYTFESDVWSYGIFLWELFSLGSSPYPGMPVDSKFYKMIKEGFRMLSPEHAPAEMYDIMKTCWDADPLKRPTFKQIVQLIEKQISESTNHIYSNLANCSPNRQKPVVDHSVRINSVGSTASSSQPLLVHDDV
In short: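 Enzyme (5.0 nM wtKIT), 1 μM FAM-labelled peptide, 400 μM ATP and 10 mM MnCl2 in HEPES pH 7.5 with 1% DMSO, incubated 3 h at 25° C. EDTA quench; substrate and phosphoproduct separated by microfluidic electrophoresis and quantified by fluorescence.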

[1] = biological target: T4, BCRP (BCRP-MDCKII monolayer) (Homo sapiens, UniProt Q9UNQ0); assay: MDCKII-BCRP bidirectional transport assay; assay type: in vitro ADME; conditions: for MDCK-BCRP: Papp A-B: apical to basolateral
T4 construct: host or cells: MDCKII (canine kidney) cells
T4 sequence (Q9UNQ0 1-655): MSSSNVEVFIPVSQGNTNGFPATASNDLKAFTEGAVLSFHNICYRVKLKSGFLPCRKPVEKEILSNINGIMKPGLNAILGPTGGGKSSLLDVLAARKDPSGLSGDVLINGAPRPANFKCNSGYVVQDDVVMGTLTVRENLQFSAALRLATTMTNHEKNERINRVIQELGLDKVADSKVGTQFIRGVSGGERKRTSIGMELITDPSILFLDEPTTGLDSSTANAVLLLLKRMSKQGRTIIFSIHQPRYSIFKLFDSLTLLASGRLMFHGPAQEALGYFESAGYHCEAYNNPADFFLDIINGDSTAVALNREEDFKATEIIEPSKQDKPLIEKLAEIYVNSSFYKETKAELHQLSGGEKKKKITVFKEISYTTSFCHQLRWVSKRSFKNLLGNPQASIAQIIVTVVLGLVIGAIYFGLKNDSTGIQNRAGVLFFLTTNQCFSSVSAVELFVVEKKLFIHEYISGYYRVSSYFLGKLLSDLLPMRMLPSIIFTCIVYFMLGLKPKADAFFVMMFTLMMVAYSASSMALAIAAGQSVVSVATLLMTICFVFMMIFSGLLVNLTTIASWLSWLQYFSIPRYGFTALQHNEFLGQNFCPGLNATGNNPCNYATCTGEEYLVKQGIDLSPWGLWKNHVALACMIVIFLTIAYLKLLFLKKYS
In short: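 Bidirectional A→B and B→A transport across PreadyPort BCRP-MDCKII monolayers (days 12–15) was run in duplicate for 120 min at 37° C, 5% CO2 after a 15 min preincubation. Compound levels were measured by LC-MS/MS. Papp and recovery were calculated, with efflux ratio indicating transporter engagement.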

SMILES	Solubility (μM) (Kinetic solubility assay)	IC50 (PDGFRα)	IC50 (CSF-1R)	IC50 (wtKIT)	MDCK-BCRP: Efflux Ratio [1]	MDCK-BCRP: Papp A-B [1]
Cc1ccc(-c2noc(CC3CC(F)(F)C3)n2)cc1NC(=O)c1cnc2ccccn12 [Compound I-124]	**** (a solubility less than or equal to 2 μM)	50 to 500 nM	≤ 50 nM	≤ 50 nM	1.14	9.07 10^−6 cm/s
COC(=O)N1CC(c2nc(-c3ccc(C)c(NC(=O)c4cnn5ccc(Br)cc45)c3)no2)C1 [Compound I-280]	**** (a solubility less than or equal to 2 μM)	5000 to 30000 nM	≤ 50 nM	≤ 50 nM	2.55	5.07 10^−6 cm/s
Cc1ccc(-c2noc(C3(N)CC4(CC(F)(F)C4)C3)n2)cc1NC(=O)c1cnc2ccccn12 [Compound I-307]	** (a solubility greater than 10 μM and less than or equal to 50 μM)	500 to 5000 nM	≤ 50 nM	≤ 50 nM	3.77	7.39 10^−6 cm/s
Cc1nc(-c2ccc(C)c(NC(=O)c3cnc4cc(C(F)F)ccn34)c2)no1 [Compound I-134]	**** (a solubility less than or equal to 2 μM)	500 to 5000 nM	500 to 5000 nM	≤ 50 nM	2.12	7.85 10^−6 cm/s
